{"source": "ChEMBL document CHEMBL5120927", "about": "“LEGO-Lipophosphonoxins: A Novel Approach in Designing Membrane Targeting Antimicrobials” (J Med Chem, 2022)", "data": [{"tested_on": "not listed separately", "test": "Gradient chromatographic hydrophobicity index of the compound at pH 3.7 by HPLC analysis", "type": "ADME", "details": "not given", "values": [{"smiles": "CC/C=C\\CCCOP(=O)(CCN(CCCN)CCCN)OCCCCCCOP(=O)(CCN(CCCN)CCCN)OCCC/C=C\\CC.Cl.Cl.Cl.Cl.Cl.Cl", "note": "(centres undefined)", "CHI": 2.4}, {"smiles": "CCCCCOP(=O)(CCN(CCCN)CCCN)OCCCCCCCCCCOP(=O)(CCN(CCCN)CCCN)OCCCCC.Cl.Cl.Cl.Cl.Cl.Cl", "note": "(centres undefined)", "CHI": 31.3}, {"smiles": "Cl.Cl.Cl.Cl.Cl.Cl.NCCCN(CCCN)CCP(=O)(OCCCCCCOP(=O)(CCN(CCCN)CCCN)OCCc1ccccc1)OCCc1ccccc1", "note": "(centres undefined)", "CHI": 11.9}]}, {"tested_on": "Staphylococcus aureus", "test": "Antibacterial activity against Staphylococcus aureus ATCC 29213 = CCM 4223 assessed as inhibition of bacterial growth incubated for 24 hrs in presence of BSA by microdilution assay", "type": "functional", "details": "not given", "units": {"MIC": "µg/mL"}, "values": [{"smiles": "CC/C=C\\CCCOP(=O)(CCN(CCCN)CCCN)OCCCCCCOP(=O)(CCN(CCCN)CCCN)OCCC/C=C\\CC.Cl.Cl.Cl.Cl.Cl.Cl", "note": "(centres undefined)", "MIC": 16}, {"smiles": "CCCCCOP(=O)(CCN(CCCN)CCCN)OCCCCCCCCCCOP(=O)(CCN(CCCN)CCCN)OCCCCC.Cl.Cl.Cl.Cl.Cl.Cl", "note": "(centres undefined)", "MIC": 8}, {"smiles": "Cl.Cl.Cl.Cl.Cl.Cl.NCCCN(CCCN)CCP(=O)(OCCCCCCOP(=O)(CCN(CCCN)CCCN)OCCc1ccccc1)OCCc1ccccc1", "note": "(centres undefined)", "MIC": "> 128"}]}, {"tested_on": "Enterococcus faecium", "test": "Antibacterial activity against vancomycin resistant Enterococcus faecium 419/ANA assessed as reduction in microbial growth incubated for 24 hrs by microdilution assay", "type": "functional", "details": "not given", "units": {"MIC": "µg/mL"}, "values": [{"smiles": "CC/C=C\\CCCOP(=O)(CCN(CCCN)CCCN)OCCCCCCOP(=O)(CCN(CCCN)CCCN)OCCC/C=C\\CC.Cl.Cl.Cl.Cl.Cl.Cl", "note": "(centres undefined)", "MIC": "> 128"}, {"smiles": "CCCCCOP(=O)(CCN(CCCN)CCCN)OCCCCCCCCCCOP(=O)(CCN(CCCN)CCCN)OCCCCC.Cl.Cl.Cl.Cl.Cl.Cl", "note": "(centres undefined)", "MIC": 128}, {"smiles": "Cl.Cl.Cl.Cl.Cl.Cl.NCCCN(CCCN)CCP(=O)(OCCCCCCOP(=O)(CCN(CCCN)CCCN)OCCc1ccccc1)OCCc1ccccc1", "note": "(centres undefined)", "MIC": "> 128"}]}, {"tested_on": "Pseudomonas aeruginosa", "test": "Antibacterial activity against multidrug-resistant Pseudomonas aeruginosa assessed as reduction in microbial growth incubated for 24 hrs by microdilution assay", "type": "functional", "details": "not given", "units": {"MIC": "µg/mL"}, "values": [{"smiles": "CC/C=C\\CCCOP(=O)(CCN(CCCN)CCCN)OCCCCCCOP(=O)(CCN(CCCN)CCCN)OCCC/C=C\\CC.Cl.Cl.Cl.Cl.Cl.Cl", "note": "(centres undefined)", "MIC": "> 128"}, {"smiles": "CCCCCOP(=O)(CCN(CCCN)CCCN)OCCCCCCCCCCOP(=O)(CCN(CCCN)CCCN)OCCCCC.Cl.Cl.Cl.Cl.Cl.Cl", "note": "(centres undefined)", "MIC": 8}, {"smiles": "Cl.Cl.Cl.Cl.Cl.Cl.NCCCN(CCCN)CCP(=O)(OCCCCCCOP(=O)(CCN(CCCN)CCCN)OCCc1ccccc1)OCCc1ccccc1", "note": "(centres undefined)", "MIC": "> 128"}]}, {"tested_on": "Escherichia coli", "test": "Antibacterial activity against Escherichia coli ATCC 25922 = CCM 3954 assessed as inhibition of bacterial growth incubated for 24 hrs in presence of BSA by microdilution assay", "type": "functional", "details": "not given", "units": {"MIC": "µg/mL"}, "values": [{"smiles": "CC/C=C\\CCCOP(=O)(CCN(CCCN)CCCN)OCCCCCCOP(=O)(CCN(CCCN)CCCN)OCCC/C=C\\CC.Cl.Cl.Cl.Cl.Cl.Cl", "note": "(centres undefined)", "MIC": 128}, {"smiles": "CCCCCOP(=O)(CCN(CCCN)CCCN)OCCCCCCCCCCOP(=O)(CCN(CCCN)CCCN)OCCCCC.Cl.Cl.Cl.Cl.Cl.Cl", "note": "(centres undefined)", "MIC": "> 128"}, {"smiles": "Cl.Cl.Cl.Cl.Cl.Cl.NCCCN(CCCN)CCP(=O)(OCCCCCCOP(=O)(CCN(CCCN)CCCN)OCCc1ccccc1)OCCc1ccccc1", "note": "(centres undefined)", "MIC": "> 128"}]}, {"tested_on": "Enterococcus faecalis", "test": "Antibacterial activity against Enterococcus faecalis ATCC 29212 = CCM 4224 assessed as inhibition of bacterial growth incubated for 24 hrs by microdilution assay", "type": "functional", "details": "not given", "units": {"MIC": "µg/mL"}, "values": [{"smiles": "CC/C=C\\CCCOP(=O)(CCN(CCCN)CCCN)OCCCCCCOP(=O)(CCN(CCCN)CCCN)OCCC/C=C\\CC.Cl.Cl.Cl.Cl.Cl.Cl", "note": "(centres undefined)", "MIC": 128}, {"smiles": "CCCCCOP(=O)(CCN(CCCN)CCCN)OCCCCCCCCCCOP(=O)(CCN(CCCN)CCCN)OCCCCC.Cl.Cl.Cl.Cl.Cl.Cl", "note": "(centres undefined)", "MIC": 32}, {"smiles": "Cl.Cl.Cl.Cl.Cl.Cl.NCCCN(CCCN)CCP(=O)(OCCCCCCOP(=O)(CCN(CCCN)CCCN)OCCc1ccccc1)OCCc1ccccc1", "note": "(centres undefined)", "MIC": "> 128"}]}, {"tested_on": "Staphylococcus epidermidis", "test": "Antibacterial activity against Staphylococcus epidermidis CCM 7221 assessed as inhibition of bacterial growth incubated for 24 hrs by microdilution assay", "type": "functional", "details": "not given", "units": {"MIC": "µg/mL"}, "values": [{"smiles": "CC/C=C\\CCCOP(=O)(CCN(CCCN)CCCN)OCCCCCCOP(=O)(CCN(CCCN)CCCN)OCCC/C=C\\CC.Cl.Cl.Cl.Cl.Cl.Cl", "note": "(centres undefined)", "MIC": 4}, {"smiles": "CCCCCOP(=O)(CCN(CCCN)CCCN)OCCCCCCCCCCOP(=O)(CCN(CCCN)CCCN)OCCCCC.Cl.Cl.Cl.Cl.Cl.Cl", "note": "(centres undefined)", "MIC": 1}, {"smiles": "Cl.Cl.Cl.Cl.Cl.Cl.NCCCN(CCCN)CCP(=O)(OCCCCCCOP(=O)(CCN(CCCN)CCCN)OCCc1ccccc1)OCCc1ccccc1", "note": "(centres undefined)", "MIC": 64}]}, {"tested_on": "Staphylococcus aureus", "test": "Antibacterial activity against Staphylococcus aureus ATCC 29213 = CCM 4223 assessed as inhibition of bacterial growth incubated for 24 hrs by microdilution assay", "type": "functional", "details": "not given", "units": {"MIC": "µg/mL"}, "values": [{"smiles": "CC/C=C\\CCCOP(=O)(CCN(CCCN)CCCN)OCCCCCCOP(=O)(CCN(CCCN)CCCN)OCCC/C=C\\CC.Cl.Cl.Cl.Cl.Cl.Cl", "note": "(centres undefined)", "MIC": 8}, {"smiles": "CCCCCOP(=O)(CCN(CCCN)CCCN)OCCCCCCCCCCOP(=O)(CCN(CCCN)CCCN)OCCCCC.Cl.Cl.Cl.Cl.Cl.Cl", "note": "(centres undefined)", "MIC": 2}, {"smiles": "Cl.Cl.Cl.Cl.Cl.Cl.NCCCN(CCCN)CCP(=O)(OCCCCCCOP(=O)(CCN(CCCN)CCCN)OCCc1ccccc1)OCCc1ccccc1", "note": "(centres undefined)", "MIC": 64}]}, {"tested_on": "Escherichia coli", "test": "Antibacterial activity against multidrug-resistant Escherichia coli CE5556 expressing CTX-M-15 assessed as reduction in microbial growth incubated for 24 hrs by microdilution assay", "type": "functional", "details": "not given", "units": {"MIC": "µg/mL"}, "values": [{"smiles": "CC/C=C\\CCCOP(=O)(CCN(CCCN)CCCN)OCCCCCCOP(=O)(CCN(CCCN)CCCN)OCCC/C=C\\CC.Cl.Cl.Cl.Cl.Cl.Cl", "note": "(centres undefined)", "MIC": 64}, {"smiles": "CCCCCOP(=O)(CCN(CCCN)CCCN)OCCCCCCCCCCOP(=O)(CCN(CCCN)CCCN)OCCCCC.Cl.Cl.Cl.Cl.Cl.Cl", "note": "(centres undefined)", "MIC": 128}, {"smiles": "Cl.Cl.Cl.Cl.Cl.Cl.NCCCN(CCCN)CCP(=O)(OCCCCCCOP(=O)(CCN(CCCN)CCCN)OCCc1ccccc1)OCCc1ccccc1", "note": "(centres undefined)", "MIC": "> 128"}]}, {"tested_on": "not listed separately", "test": "Hemolytic activity in human RBC assessed as haemoglobin release measured after 3 hr", "type": "toxicity, cell-based, Erythrocyte", "details": "red blood cells (erythrocytes)", "units": {"HC50 at 3 h": "µg/mL"}, "values": [{"smiles": "CC/C=C\\CCCOP(=O)(CCN(CCCN)CCCN)OCCCCCCOP(=O)(CCN(CCCN)CCCN)OCCC/C=C\\CC.Cl.Cl.Cl.Cl.Cl.Cl", "note": "(centres undefined)", "HC50 at 3 h": "> 200"}, {"smiles": "CCCCCOP(=O)(CCN(CCCN)CCCN)OCCCCCCCCCCOP(=O)(CCN(CCCN)CCCN)OCCCCC.Cl.Cl.Cl.Cl.Cl.Cl", "note": "(centres undefined)", "HC50 at 3 h": 159}, {"smiles": "Cl.Cl.Cl.Cl.Cl.Cl.NCCCN(CCCN)CCP(=O)(OCCCCCCOP(=O)(CCN(CCCN)CCCN)OCCc1ccccc1)OCCc1ccccc1", "note": "(centres undefined)", "HC50 at 3 h": "> 200"}]}, {"tested_on": "Escherichia coli", "test": "Antibacterial activity against Escherichia coli ATCC 25922 = CCM 3954 assessed as inhibition of bacterial growth incubated for 24 hrs by microdilution assay", "type": "functional", "details": "not given", "units": {"MIC": "µg/mL"}, "values": [{"smiles": "CC/C=C\\CCCOP(=O)(CCN(CCCN)CCCN)OCCCCCCOP(=O)(CCN(CCCN)CCCN)OCCC/C=C\\CC.Cl.Cl.Cl.Cl.Cl.Cl", "note": "(centres undefined)", "MIC": 64}, {"smiles": "CCCCCOP(=O)(CCN(CCCN)CCCN)OCCCCCCCCCCOP(=O)(CCN(CCCN)CCCN)OCCCCC.Cl.Cl.Cl.Cl.Cl.Cl", "note": "(centres undefined)", "MIC": 2}, {"smiles": "Cl.Cl.Cl.Cl.Cl.Cl.NCCCN(CCCN)CCP(=O)(OCCCCCCOP(=O)(CCN(CCCN)CCCN)OCCc1ccccc1)OCCc1ccccc1", "note": "(centres undefined)", "MIC": "> 128"}]}, {"tested_on": "Staphylococcus aureus", "test": "Antibacterial activity against methicillin resistant Staphylococcus aureus 4591/A assessed as reduction in microbial growth incubated for 24 hrs by microdilution assay", "type": "functional", "details": "not given", "units": {"MIC": "µg/mL"}, "values": [{"smiles": "CC/C=C\\CCCOP(=O)(CCN(CCCN)CCCN)OCCCCCCOP(=O)(CCN(CCCN)CCCN)OCCC/C=C\\CC.Cl.Cl.Cl.Cl.Cl.Cl", "note": "(centres undefined)", "MIC": 16}, {"smiles": "CCCCCOP(=O)(CCN(CCCN)CCCN)OCCCCCCCCCCOP(=O)(CCN(CCCN)CCCN)OCCCCC.Cl.Cl.Cl.Cl.Cl.Cl", "note": "(centres undefined)", "MIC": 2}, {"smiles": "Cl.Cl.Cl.Cl.Cl.Cl.NCCCN(CCCN)CCP(=O)(OCCCCCCOP(=O)(CCN(CCCN)CCCN)OCCc1ccccc1)OCCc1ccccc1", "note": "(centres undefined)", "MIC": 64}]}, {"tested_on": "Pseudomonas aeruginosa", "test": "Antibacterial activity against Pseudomonas aeruginosa ATCC 27853 = CCM 3955 assessed as inhibition of bacterial growth incubated for 24 hrs by microdilution assay", "type": "functional", "details": "not given", "units": {"MIC": "µg/mL"}, "values": [{"smiles": "CC/C=C\\CCCOP(=O)(CCN(CCCN)CCCN)OCCCCCCOP(=O)(CCN(CCCN)CCCN)OCCC/C=C\\CC.Cl.Cl.Cl.Cl.Cl.Cl", "note": "(centres undefined)", "MIC": "> 128"}, {"smiles": "CCCCCOP(=O)(CCN(CCCN)CCCN)OCCCCCCCCCCOP(=O)(CCN(CCCN)CCCN)OCCCCC.Cl.Cl.Cl.Cl.Cl.Cl", "note": "(centres undefined)", "MIC": 16}, {"smiles": "Cl.Cl.Cl.Cl.Cl.Cl.NCCCN(CCCN)CCP(=O)(OCCCCCCOP(=O)(CCN(CCCN)CCCN)OCCc1ccccc1)OCCc1ccccc1", "note": "(centres undefined)", "MIC": "> 128"}]}]}
